{
  "source": "patent EP1715059A1",
  "about": "“Method for the identification of possibly harmful receptor tyrosine kinase (RTK) mutations and of inhibitors or medication directed against RTK mutants” (Esbatech AG, priority 2005, dated 2006)",
  "key": {"N822H": {"target": "N822H (Homo sapiens, UniProt P10721, N822H)", "sequence (P10721 26-976 N822H)": "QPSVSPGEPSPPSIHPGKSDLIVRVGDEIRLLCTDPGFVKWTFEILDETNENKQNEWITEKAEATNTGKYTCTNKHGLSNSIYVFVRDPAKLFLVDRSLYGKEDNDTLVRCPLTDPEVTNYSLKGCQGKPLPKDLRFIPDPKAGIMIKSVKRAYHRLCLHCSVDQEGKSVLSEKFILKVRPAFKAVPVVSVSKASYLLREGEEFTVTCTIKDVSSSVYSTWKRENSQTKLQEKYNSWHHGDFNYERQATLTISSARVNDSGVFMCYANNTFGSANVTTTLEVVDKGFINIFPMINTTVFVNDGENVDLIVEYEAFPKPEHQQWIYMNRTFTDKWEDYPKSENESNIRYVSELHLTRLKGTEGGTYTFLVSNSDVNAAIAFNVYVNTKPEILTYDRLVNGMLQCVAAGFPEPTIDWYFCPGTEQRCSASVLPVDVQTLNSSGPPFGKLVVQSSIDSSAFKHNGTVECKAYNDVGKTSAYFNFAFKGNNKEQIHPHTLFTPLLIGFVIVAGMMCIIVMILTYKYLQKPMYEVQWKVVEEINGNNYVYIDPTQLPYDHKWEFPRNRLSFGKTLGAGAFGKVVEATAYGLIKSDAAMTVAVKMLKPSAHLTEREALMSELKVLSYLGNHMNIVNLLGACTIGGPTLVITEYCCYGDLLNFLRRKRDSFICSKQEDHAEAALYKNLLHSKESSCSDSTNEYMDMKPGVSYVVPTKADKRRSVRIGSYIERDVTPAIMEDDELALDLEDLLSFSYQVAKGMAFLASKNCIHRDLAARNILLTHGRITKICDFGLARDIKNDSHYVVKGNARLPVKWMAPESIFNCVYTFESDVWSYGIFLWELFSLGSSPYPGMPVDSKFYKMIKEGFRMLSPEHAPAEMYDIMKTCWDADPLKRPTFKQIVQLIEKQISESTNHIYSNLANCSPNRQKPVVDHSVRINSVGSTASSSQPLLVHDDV", "details": "like wt KIT, literature (25); cited from earlier work"}, "PDGFR-β": {"tested_on": "PDGFR-β", "assay": "Yeast growth assay, selection of specific RTK inhibition (OD 600 nm)", "assay_type": "cell-based, human", "details": "50 µM in the yeast culture", "from_the_text": "(§1) Selection of specific inhibition of Receptor Tyrosine Kinase activity in yeast."}, "K642E": {"target": "K642E (Homo sapiens, UniProt P10721, K642E)", "sequence (P10721 26-976 K642E)": "as the sequence (P10721 26-976 N822H) above, with K617E, H797N counted along it", "details": "like wt KIT, literature (25); cited from earlier work"}, "D816V mutation": {"target": "D816V mutation (Homo sapiens, UniProt P10721, D816V)", "sequence (P10721 26-976 D816V)": "as the sequence (P10721 26-976 N822H) above, with D791V, H797N counted along it", "details": "literature (29), cited from earlier work"}, "KIT mutant D816F": {"target": "T1, KIT mutant D816F (Homo sapiens, UniProt P10721, D816F)", "T1 construct": "preferably cytoplasmic domains of RTKs or fragments thereof, are expressed in the cytoplasm of host cells; expressed in transfected cells; host or cells: S. cerevisiae RLY09/Δptp1", "T1 sequence (P10721 546-976 D816F limits assumed)": "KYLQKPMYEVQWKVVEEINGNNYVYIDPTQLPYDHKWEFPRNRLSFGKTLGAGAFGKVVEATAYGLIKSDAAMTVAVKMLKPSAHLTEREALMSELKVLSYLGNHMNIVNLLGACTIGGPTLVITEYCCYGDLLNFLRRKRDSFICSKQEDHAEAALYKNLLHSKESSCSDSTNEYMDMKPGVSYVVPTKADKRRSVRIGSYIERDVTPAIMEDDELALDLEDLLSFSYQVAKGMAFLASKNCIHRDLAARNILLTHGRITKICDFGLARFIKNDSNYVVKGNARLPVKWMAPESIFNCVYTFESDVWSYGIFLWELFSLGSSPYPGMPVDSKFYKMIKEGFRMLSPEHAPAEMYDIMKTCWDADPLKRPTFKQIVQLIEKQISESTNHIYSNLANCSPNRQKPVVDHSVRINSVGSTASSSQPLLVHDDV", "assay": "Yeast cell-based growth rescue assay, KIT mutant", "details": "0.2 to 100 µM; yeast strain RLY09/Δptp1; PD180970 effect at the highest concentrations", "from_the_text": "(§2) Expression of wild-type KIT confers only a slight slow growth phenotype in yeast (in the RLY07 strain, under the full-length GAL promoter). Various mutations that occur in human GISTs or in mastocytosis were introduced in the Kit construct expressed in yeast. Expression of the various mutants caused reduced yeast growth but in various extent, likely correlating with various extent of activity (see graphs Figures 7a and 7b) . […] The yeast strain expressing the various Kit proteins in this experiment, was […] which all the Kit proteins produce a similar slow growth phenotype (see values of the window vector/RTK). The starting OD was optimized to obtain windows as similar as possible."}, "KIT mutant D816V": {"target": "T2, KIT mutant D816V (Homo sapiens, UniProt P10721, D816V)", "T2 construct": "preferably cytoplasmic domains of RTKs or fragments thereof, are expressed in the cytoplasm of host cells; expressed in transfected cells; host or cells: S. cerevisiae RLY09/Δptp1", "T2 sequence (P10721 546-976 D816V limits assumed)": "as the sequence (P10721 546-976 D816F limits assumed) above, with F271V counted along it", "assay": "Yeast cell-based growth rescue assay, KIT mutant", "details": "0.2 to 100 µM; yeast strain RLY09/Δptp1; PD180970 effect at the highest concentrations", "from_the_text": "as §2"}, "KIT mutant D816Y": {"target": "T3, KIT mutant D816Y (Homo sapiens, UniProt P10721, D816Y)", "T3 construct": "preferably cytoplasmic domains of RTKs or fragments thereof, are expressed in the cytoplasm of host cells; expressed in transfected cells; host or cells: S. cerevisiae RLY09/Δptp1", "T3 sequence (P10721 546-976 D816Y limits assumed)": "as the sequence (P10721 546-976 D816F limits assumed) above, with F271Y counted along it", "assay": "Yeast cell-based growth rescue assay, KIT mutant", "details": "0.2 to 100 µM; yeast strain RLY09/Δptp1; PD180970 effect at the highest concentrations", "from_the_text": "as §2"}, "HMC1.1": {"tested_on": "HMC1.1", "details": "human cell line HMC1.1 expressing V560G mutation; literature (29); cited from earlier work"}, "RET": {"target": "T4, RET (Homo sapiens, UniProt P07949)", "T4 construct": "preferably cytoplasmic domains of RTKs or fragments thereof, are expressed in the cytoplasm of host cells; expressed in transfected cells; host or cells: yeast (S. cerevisiae)", "T4 sequence (P07949 658-1114 limits assumed)": "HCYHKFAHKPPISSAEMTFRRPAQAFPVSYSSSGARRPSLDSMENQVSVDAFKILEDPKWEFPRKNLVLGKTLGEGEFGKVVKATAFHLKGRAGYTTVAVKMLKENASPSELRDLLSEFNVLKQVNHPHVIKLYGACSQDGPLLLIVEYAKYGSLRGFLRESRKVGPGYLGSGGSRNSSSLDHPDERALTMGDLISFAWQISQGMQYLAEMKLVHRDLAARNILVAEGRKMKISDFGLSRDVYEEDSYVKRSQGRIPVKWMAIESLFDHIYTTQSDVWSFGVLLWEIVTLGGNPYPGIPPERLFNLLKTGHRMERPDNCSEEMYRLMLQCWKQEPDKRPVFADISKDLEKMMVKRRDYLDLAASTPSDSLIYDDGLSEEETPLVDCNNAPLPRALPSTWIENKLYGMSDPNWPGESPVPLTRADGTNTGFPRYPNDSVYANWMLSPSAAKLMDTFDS", "assay": "Yeast growth assay, selection of specific RTK inhibition (OD 600 nm)", "assay_type": "cell-based", "details": "50 µM in the yeast culture", "from_the_text": "as §1"}, "HMC-1 cells": {"tested_on": "HMC-1 cells", "details": "literature (23); cited from earlier work"}, "[1]": {"details": "patients with nonsmall cell lung cancer; cited from earlier work"}},
  "note": "Counter-ions that a name gives are not always drawn. Like-named read-outs stand apart in the source and are kept apart here.",
  "data": [
    {"smiles": "Cc1ccc(NC(=O)c2ccc(CN3CCN(C)CC3)cc2)cc1Nc1nccc(-c2cccnc2)n1", "note": "[Gleevec, imatinib mesylate]", "values": [
      {"measurement": "sensitive in vitro (concentration)", "setting": "N822H", "result": "100 to 200", "unit": "nM"},
      {"measurement": "restores growth of PDGFR-β-expressing yeast cells", "setting": "PDGFR-β", "result": "specifically restores growth"},
      {"measurement": "sensitive in vitro (concentration)", "setting": "K642E", "result": "100 to 200", "unit": "nM"},
      {"measurement": "resistance of D816V mutant to inhibitor", "setting": "D816V mutation", "result": "resistant"},
      {"measurement": "resistance of D816V mutant to inhibitor", "setting": "D816V mutation; listed as STI571", "result": "resistance"},
      {"measurement": "sensitivity of mutant D816F in yeast (growth rescue)", "setting": "KIT mutant D816F", "result": "resistant"},
      {"measurement": "sensitivity of mutant D816V in yeast (growth rescue)", "setting": "KIT mutant D816V", "result": "resistant"},
      {"measurement": "sensitivity of mutant D816Y in yeast (growth rescue)", "setting": "KIT mutant D816Y", "result": "resistant"},
      {"measurement": "apoptosis", "setting": "HMC1.1", "result": "induce apoptosis"},
      {"measurement": "restores growth of cells expressing RET", "setting": "RET", "result": "not growth of cells expressing RET"}
    ]},
    {"smiles": "Cc1cc(Nc2ncc3cc(-c4c(Cl)cccc4Cl)c(=O)n(C)c3n2)ccc1F", "note": "[PD180970]", "values": [
      {"measurement": "resistance of D816V mutant to inhibitor", "setting": "D816V mutation", "result": "resistant"},
      {"measurement": "sensitivity of mutant D816F in yeast (growth rescue)", "setting": "KIT mutant D816F", "result": "slight effect"},
      {"measurement": "sensitivity of mutant D816V in yeast (growth rescue)", "setting": "KIT mutant D816V", "result": "slight effect"},
      {"measurement": "sensitivity of mutant D816Y in yeast (growth rescue)", "setting": "KIT mutant D816Y", "result": "slight effect"},
      {"measurement": "KIT phosphorylation", "setting": "HMC-1 cells", "result": "inhibits"},
      {"measurement": "cell proliferation", "setting": "HMC-1 cells", "result": "inhibits"}
    ]},
    {"smiles": "COc1cc2ncnc(Nc3ccc(F)c(Cl)c3)c2cc1OCCCN1CCOCC1", "note": "[gefitinib]", "values": [
      {"measurement": "patients have a rapid and often dramatic clinical response", "setting": "[1]", "result": 10, "unit": "%"}
    ]}
  ]
}
